Experimental findings from ChEMBL document CHEMBL3098055 (Bioorg Med Chem Lett, 2014) are described below.

Holding throughout (type): cell-based
Experiment [1] has as its target Somatostatin receptor type 5 (Homo sapiens, UniProt P35346). Briefly: Displacement of [125I]-somatostatin from human SSTR5 expressed in CHO-K1 cells. (In general: Loss of bound radioactivity is the signal in a displacement assay; it reports binding, not function.)
The target of experiment [2] is Somatostatin receptor type 1 (Homo sapiens, UniProt P30872). Briefly: Displacement of [125I]-somatostatin from human SSTR1 expressed in CHO-K1 cells.
Experiment [3] concerns the target Somatostatin receptor type 2 (Homo sapiens, UniProt P30874). The experiment in a line: Displacement of [125I]-somatostatin from human SSTR2 expressed in CHO-K1 cells.
Experiment [4] deals with Somatostatin receptor type 3 (Homo sapiens, UniProt P32745). Briefly: Displacement of [125I]-somatostatin from human SSTR3 expressed in CHO-K1 cells.
The target of experiment [5] is Somatostatin receptor type 4 (Homo sapiens, UniProt P31391). Briefly: Displacement of [125I]-somatostatin from human SSTR4 expressed in CHO-K1 cells.

Bridge positions count the residues as written; N and C are the ends. Square brackets hold non-standard residues; d marks the D form. Peptide text beside a SMILES is read from it. AllylGly = C=CC[C@H](N)C(=O)O

Somatostatin receptor type 2, sequence (P30874 whole entry): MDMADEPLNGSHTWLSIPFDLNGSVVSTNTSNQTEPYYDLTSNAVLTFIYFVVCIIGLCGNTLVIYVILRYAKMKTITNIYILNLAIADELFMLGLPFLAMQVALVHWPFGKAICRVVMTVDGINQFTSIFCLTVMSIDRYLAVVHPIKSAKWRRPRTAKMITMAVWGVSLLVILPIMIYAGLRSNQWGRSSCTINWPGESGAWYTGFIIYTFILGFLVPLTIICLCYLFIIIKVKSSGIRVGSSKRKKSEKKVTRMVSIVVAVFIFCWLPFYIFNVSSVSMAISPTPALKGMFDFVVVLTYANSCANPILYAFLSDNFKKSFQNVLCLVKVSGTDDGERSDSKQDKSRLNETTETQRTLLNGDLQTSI
Somatostatin receptor type 4, sequence (P31391 whole entry): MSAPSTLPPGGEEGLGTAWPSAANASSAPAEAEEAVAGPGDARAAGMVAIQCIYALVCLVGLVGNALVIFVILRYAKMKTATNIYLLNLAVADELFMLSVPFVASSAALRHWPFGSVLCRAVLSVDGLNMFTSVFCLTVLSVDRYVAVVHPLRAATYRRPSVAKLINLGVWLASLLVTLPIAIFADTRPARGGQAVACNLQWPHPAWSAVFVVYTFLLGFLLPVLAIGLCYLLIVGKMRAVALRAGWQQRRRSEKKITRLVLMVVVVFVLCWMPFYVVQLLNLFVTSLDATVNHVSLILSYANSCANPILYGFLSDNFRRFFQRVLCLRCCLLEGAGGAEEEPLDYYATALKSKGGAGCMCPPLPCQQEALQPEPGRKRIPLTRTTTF
Somatostatin receptor type 3, sequence (P32745 whole entry): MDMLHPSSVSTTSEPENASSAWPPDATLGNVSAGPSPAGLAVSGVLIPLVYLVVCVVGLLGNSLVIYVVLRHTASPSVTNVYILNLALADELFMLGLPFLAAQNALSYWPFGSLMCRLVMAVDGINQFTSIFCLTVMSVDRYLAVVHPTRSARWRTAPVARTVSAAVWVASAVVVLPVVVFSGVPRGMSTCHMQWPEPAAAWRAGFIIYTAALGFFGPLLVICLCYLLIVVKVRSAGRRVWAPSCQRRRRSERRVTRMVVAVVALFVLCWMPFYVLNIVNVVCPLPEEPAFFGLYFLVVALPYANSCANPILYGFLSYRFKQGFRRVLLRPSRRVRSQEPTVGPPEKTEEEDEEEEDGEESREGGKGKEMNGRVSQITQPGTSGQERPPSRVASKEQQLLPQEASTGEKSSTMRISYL
Somatostatin receptor type 1, sequence (P30872 whole entry): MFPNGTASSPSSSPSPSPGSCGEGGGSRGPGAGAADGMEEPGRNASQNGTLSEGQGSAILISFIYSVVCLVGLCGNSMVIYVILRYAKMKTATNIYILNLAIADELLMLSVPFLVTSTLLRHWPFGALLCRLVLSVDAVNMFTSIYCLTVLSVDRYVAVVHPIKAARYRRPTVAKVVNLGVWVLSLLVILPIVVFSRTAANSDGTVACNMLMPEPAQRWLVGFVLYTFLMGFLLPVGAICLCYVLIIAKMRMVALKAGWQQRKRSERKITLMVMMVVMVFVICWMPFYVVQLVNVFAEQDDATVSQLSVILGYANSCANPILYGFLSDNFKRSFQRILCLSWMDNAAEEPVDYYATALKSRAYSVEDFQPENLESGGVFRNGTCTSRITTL
Somatostatin receptor type 5, sequence (P35346 whole entry): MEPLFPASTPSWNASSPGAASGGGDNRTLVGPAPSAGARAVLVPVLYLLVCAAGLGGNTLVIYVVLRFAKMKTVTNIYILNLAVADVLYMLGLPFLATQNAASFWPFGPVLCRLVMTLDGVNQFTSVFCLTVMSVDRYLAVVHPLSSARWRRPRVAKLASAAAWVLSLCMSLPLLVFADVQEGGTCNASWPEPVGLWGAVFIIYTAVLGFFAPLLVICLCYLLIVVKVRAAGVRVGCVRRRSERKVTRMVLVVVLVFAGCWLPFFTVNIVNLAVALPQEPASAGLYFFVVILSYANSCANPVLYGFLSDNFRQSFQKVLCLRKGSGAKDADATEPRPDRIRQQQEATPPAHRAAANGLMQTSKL

By Ki is commonly meant the equilibrium dissociation constant of an inhibitor or competing ligand from its target. The low end stands for higher affinity, the high end for lower affinity. For `C[C@H](N)C(=O)NCC(=O)N[C@H]1C/C=C\C[C@@H](C(N)=O)NC(=O)[C@H](CO)NC(=O)[C@H]([C@@H](C)O)NC(=O)[C@H](Cc2ccccc2)NC(=O)[C@H]([C@@H](C)O)NC(=O)[C@H](CCCCN)NC(=O)[C@H](Cc2c[nH]c3ccccc23)NC(=O)[C@H](Cc2ccccc2)NC(=O)[C@H](Cc2ccccc2)NC(=O)[C@H](CC(N)=O)NC(=O)[C@H](CCCCN)NC1=O` (H-AG[AllylGly]KNFFWKTFTS[AllylGly]-NH2; staple (Z) 3-14), the inhibition constant (Ki) in experiment [1] was 0.2 nM; in experiment [2] it was 0.31 nM; in experiment [3], 0.41 nM; in experiment [4] it was 4.24 nM; in experiment [5], 1.77 nM.
